Results on one molecule are retold here after PMC4970445, “Multiple active site residues are important for photochemical efficiency in the light-activated enzyme protochlorophyllide oxidoreductase (POR)^” (Journal of Photochemistry and Photobiology. B, Biology, 2016).

What all share (assay): FRET from protein Trp to bound NADPH
What all share (type): binding

Assay [1] addresses T1, protochlorophyllide oxidoreductase (POR) (Thermosynechococcus vestitus, UniProt Q8DLC1, R38V).
T1 construct: recombinant, overexpressed in Escherichia coli, purified as in earlier work
From the text:
(§1) FRET from protein Trp to bound NADPH on protochlorophyllide oxidoreductase (POR)

For assay [2], the target named is T2, protochlorophyllide oxidoreductase (POR) (Thermosynechococcus vestitus, UniProt Q8DLC1, G19A).
T2 construct: recombinant, overexpressed in Escherichia coli, purified as in earlier work
Text: as §1

Assay [3] deals with T3, protochlorophyllide oxidoreductase (POR) (Thermosynechococcus vestitus, UniProt Q8DLC1, K42A).
T3 construct: recombinant, overexpressed in Escherichia coli, purified as in earlier work
Text: as §1

Assay [4] concerns the target T4, protochlorophyllide oxidoreductase (POR) (Thermosynechococcus vestitus, UniProt Q8DLC1, S16C).
T4 construct: recombinant, overexpressed in Escherichia coli, purified as in earlier work
Text: as §1

Assay [5] has as its target T5, protochlorophyllide oxidoreductase (POR) (Thermosynechococcus vestitus, UniProt Q8DLC1).
T5 construct: recombinant, overexpressed in Escherichia coli, purified as in earlier work
Text: as §1

For assay [6], the target named is T6, protochlorophyllide oxidoreductase (POR) (Thermosynechococcus vestitus, UniProt Q8DLC1, T230F).
T6 construct: recombinant, overexpressed in Escherichia coli, purified as in earlier work
Text: as §1

T1 sequence (Q8DLC1 entry or part of it R38V): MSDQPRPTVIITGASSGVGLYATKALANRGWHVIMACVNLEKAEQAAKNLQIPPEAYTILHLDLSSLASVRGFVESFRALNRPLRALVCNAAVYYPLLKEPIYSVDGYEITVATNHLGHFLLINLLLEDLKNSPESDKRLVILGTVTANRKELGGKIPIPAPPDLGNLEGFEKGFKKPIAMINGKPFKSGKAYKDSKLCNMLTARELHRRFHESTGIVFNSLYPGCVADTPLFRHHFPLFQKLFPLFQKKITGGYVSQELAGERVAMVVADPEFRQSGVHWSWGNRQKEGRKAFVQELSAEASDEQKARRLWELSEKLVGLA
T2 sequence (Q8DLC1 entry or part of it G19A): as the sequence (Q8DLC1 entry or part of it R38V) above, with G19A, V38R counted along it
T4 sequence (Q8DLC1 entry or part of it S16C): as the sequence (Q8DLC1 entry or part of it R38V) above, with S16C, V38R counted along it
T3 sequence (Q8DLC1 entry or part of it K42A): as the sequence (Q8DLC1 entry or part of it R38V) above, with V38R, K42A counted along it
T5 sequence (Q8DLC1 1-322): as the sequence (Q8DLC1 entry or part of it R38V) above, with V38R counted along it
T6 sequence (Q8DLC1 entry or part of it T230F): as the sequence (Q8DLC1 entry or part of it R38V) above, with V38R, T230F counted along it

Regarding `NC(=O)C1=CN([C@@H]2O[C@H](COP(=O)(O)OP(=O)(O)OC[C@H]3O[C@@H](n4cnc5c(N)ncnc54)[C@H](OP(=O)(O)O)[C@@H]3O)[C@@H](O)[C@H]2O)C=CC1` [NADPH], the Kd stood at 411 ± 76 nM in assay [1]; 182 ± 31 nM in assay [2]; 230 ± 81 nM in assay [3]; 325 ± 90 nM in assay [4]; 21 ± 1 nM in assay [5]; 436 ± 87 nM in assay [6].

Usually Kd stands for the constant that tells how readily two partners part at equilibrium.
